Measured values taken from PubChem BioAssay AID2060499 (Molecular Pharmacology Branch, DTP, NCI, 2025).
pIC50: −log10 of the molar value.

System: 777334-354-R2-J4-PDC tumor spheroids with HUVEC/MSC, viability
Test: Anticancer human tumor 777334-354-R2-J4-PDC patient-derived pancreatic adenocarcinoma cell line growth inhibition [GQUAD]
Conditions: for pIC50: curve of first compound; for viability, T/C: stronger effect = lower value
Source text: DNA G-quadruplex Stabilizer Agents in Combinations in Complex Spheroids
A high-throughput screen of multi-cell type tumor spheroids was designed to identify active combinations of DNA G-quadruplex stabilizer agents and targeted small molecules. Complex spheroids include a stromal component modeled by human endothelial cells (HUVEC) and fibroblasts modeled by human mesenchymal stem cells (MSCs). The concentration ranges selected for each drug and investigational agent were based upon clinically achievable concentrations if the clinical Cmax of the agent was known.
Compounds. The drugs and investigational agents: pidnarulex (CX-5461; NSC782164), APTO-253 (NSC789042), BRACO-19 (NSC847499), peposertib (NSC802822), ceralasertib (NSC780249), elimusertib (NSC800525), camonsertib (NSC841442), AZD-1390 (NSC803789), olaparib (NSC753686), talazoparib (NSC767125), ART-558 (NSC835418), sotorasib (NSC818433), MRTX-1133 (NSC836407), SN-38 (NSC673596), topotecan (NSC609699), etoposide (NSC141540), doxorubicin (NSC123127), gemcitabine (NSC613327), 5-fluorouracil (NSC19893), paclitaxel (NSC125973), vemurafenib (NSC761431), panobinostat (NSC761190), R-306465 (JNJ-16241199; NSC773264), adavosertib (NSC754352), TP-3654 (NSC805149), carboplatin (NSC241240), KSQ-4279 (NSC840948), and staurosporine (NSC755774) were obtained from the National Cancer Institute (NCI) Developmental Therapeutics Program Chemical Repository (34). The FDA-approved anticancer drug set is available from the NCI Developmental Therapeutics Program. […] The stock solutions were prepared in dimethyl sulfoxide (DMSO, Sigma-Aldrich, St. Louis, MO, cat. D2650) at 800-fold the tested concentration and stored at -70 degrees C prior to their use. All drugs and investigational agents were tested over a range starting from a high concentration at or near the clinical Cmax and decreasing in half-log increments. If the clinical Cmax for an agent had not been determined, the highest concentration tested was 10 microM.
2.3 Cell Culture. All cells were maintained in an incubator at 37 degrees C and 5% CO2 with 95% humidity. The PDC lines were cultured according to standard operating procedures established by the NCI PDMR. All PDCs were thawed and cultured in Matrigel-coated flasks prepared with a working solution of 1X Ham's F-12 nutrient mix, without supplementation (Invitrogen, cat. 11765054), 100 U/mL penicillin-streptomycin (Invitrogen, cat. 15140122), and 2.5% Matrigel (Corning Inc., cat. 354248) for the first three passages. The 857933-349-R-J2-PDC line was cultured in 6C/Colon 1B media, which includes advanced DMEM/F-12 (Thermo Fisher Scientific, cat. 12634028), 10 mM HEPES (Thermo Fisher Scientific, cat. 15630080), 1X GlutaMAX supplement (Thermo Fisher Scientific, cat. 35050061), 0.1 mg/mL primocin (InvivoGen, cat. ant-pm-2), 10% defined fetal bovine serum, heat inactivated (HyClone Laboratories Inc., cat. SH30070.03HI), 50% L-WRN conditioned media (ATCC, cat. CRL-3276), 1.25 mM N-Acetyl-L-cysteine (Sigma-Aldrich, cat. A9165), 10 mM nicotinamide (Sigma-Aldrich, cat. N0636), 1X B-27 supplement (Thermo Fisher Scientific, cat. 17504044), 1X N-2 supplement (Thermo Fisher Scientific, cat. 17502048), 10 microM Y-27632 dihydrochloride (Tocris Bioscience, cat. 1254), and 50 ng/mL human EGF recombinant protein (Thermo Fisher Scientific, cat. PHG0311). The 485176-168-R4-J1-PDC line was cultured in Panc media, which includes all 6C/Colon 1B media components plus 100 ng/mL human FGF-10 (Thermo Fisher Scientific, cat. 100-26), 500 nM SB-431542 (Selleckchem, cat. S1067), and gastrin (Tocris, cat. 3006).
[…]

[1] = second compound 0.0316 µM, first compound 0.0316 µM
[2] = second compound 0.0316 µM, first compound 0.316 µM
[3] = second compound 0.1 µM, first compound 0.0316 µM
[4] = second compound 0.1 µM, first compound 0.316 µM
[5] = second compound 0.316 µM, first compound 0.0316 µM
[6] = second compound 0.316 µM, first compound 0.316 µM
[7] = second compound 1 µM, first compound 0.0316 µM
[8] = second compound 1 µM, first compound 0.316 µM
[9] = second compound 3.16 µM, first compound 0.0316 µM
[10] = second compound 3.16 µM, first compound 0.316 µM
[11] = second compound 10 µM, first compound 0.0316 µM
[12] = second compound 10 µM, first compound 0.316 µM
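Further: spheroids exposed to compounds for 7 days before readout.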

Question: With `CC(=O)O[C@H]1C(=O)[C@@]2(C)[C@H]([C@H](OC(=O)c3ccccc3)[C@]3(O)C[C@H](OC(=O)[C@H](O)[C@@H](NC(=O)c4ccccc4)c4ccccc4)C(C)=C1C3(C)C)[C@]1(OC(C)=O)CO[C@@H]1C[C@@H]2O` + CN(C)c1ccc(Nc2c3ccc(NC(=O)CCN4CCCC4)cc3nc3cc(NC(=O)CCN4CCCC4)ccc23)cc1 as the compound, how does the pIC50 (second compound 0.0316 µM) read?
Answer: 6.65

Question: And the pIC50 (second compound 0.1 µM)?
Answer: 6.66

Question: And the pIC50 (second compound 0.316 µM)?
Answer: 6.72

Question: And the pIC50 (second compound 1 µM)?
Answer: 7.05

Question: And the pIC50 (second compound 3.16 µM)?
Answer: 7.03

Question: What about the pIC50 (second compound 10 µM) of the same compound?
Answer: 6.68

Question: And the viability, T/C [1]?
Answer: 76.8%

Question: What about the viability, T/C (second compound 0.0316 µM, first compound 0.1 µM) of the same compound?
Answer: 57.2%

Question: And the viability, T/C [2]?
Answer: 48.6%

Question: And the viability, T/C (second compound 0.0316 µM, first compound 1 µM)?
Answer: 39.2%

Question: And the viability, T/C (second compound 0.0316 µM, first compound 3.16 µM)?
Answer: 43.2%

Question: What about the viability, T/C (second compound 0.0316 µM, first compound 10 µM) of the same compound?
Answer: 46.2%

Question: What about the viability, T/C [3] of the same compound?
Answer: 72.7%

Question: What about the viability, T/C (second compound 0.1 µM, first compound 0.1 µM) of the same compound?
Answer: 58.1%

Question: And the viability, T/C [4]?
Answer: 46.5%

Question: What about the viability, T/C (second compound 0.1 µM, first compound 1 µM) of the same compound?
Answer: 38.9%

Question: And the viability, T/C (second compound 0.1 µM, first compound 3.16 µM)?
Answer: 49.7%

Question: What about the viability, T/C (second compound 0.1 µM, first compound 10 µM) of the same compound?
Answer: 48.5%

Question: And the viability, T/C [5]?
Answer: 73.9%

Question: And the viability, T/C (second compound 0.316 µM, first compound 0.1 µM)?
Answer: 54.4%

Question: And the viability, T/C [6]?
Answer: 47%

Question: And the viability, T/C (second compound 0.316 µM, first compound 1 µM)?
Answer: 41.2%

Question: What about the viability, T/C (second compound 0.316 µM, first compound 3.16 µM) of the same compound?
Answer: 49.6%

Question: What about the viability, T/C (second compound 0.316 µM, first compound 10 µM) of the same compound?
Answer: 42%

Question: What about the viability, T/C [7] of the same compound?
Answer: 59.2%

Question: What about the viability, T/C (second compound 1 µM, first compound 0.1 µM) of the same compound?
Answer: 50.6%

Question: And the viability, T/C [8]?
Answer: 40.5%

Question: What about the viability, T/C (second compound 1 µM, first compound 1 µM) of the same compound?
Answer: 39.3%

Question: What about the viability, T/C (second compound 1 µM, first compound 3.16 µM) of the same compound?
Answer: 39%

Question: And the viability, T/C (second compound 1 µM, first compound 10 µM)?
Answer: 35.1%

Question: What about the viability, T/C [9] of the same compound?
Answer: 65.8%

Question: And the viability, T/C (second compound 3.16 µM, first compound 0.1 µM)?
Answer: 51%

Question: What about the viability, T/C [10] of the same compound?
Answer: 38.4%

Question: What about the viability, T/C (second compound 3.16 µM, first compound 1 µM) of the same compound?
Answer: 45.6%

Question: And the viability, T/C (second compound 3.16 µM, first compound 3.16 µM)?
Answer: 44.2%

Question: What about the viability, T/C (second compound 3.16 µM, first compound 10 µM) of the same compound?
Answer: 39.4%

Question: What about the viability, T/C [11] of the same compound?
Answer: 70%

Question: What about the viability, T/C (second compound 10 µM, first compound 0.1 µM) of the same compound?
Answer: 51.8%

Question: And the viability, T/C [12]?
Answer: 51.2%

Question: What about the viability, T/C (second compound 10 µM, first compound 1 µM) of the same compound?
Answer: 46.5%

Question: What about the viability, T/C (second compound 10 µM, first compound 3.16 µM) of the same compound?
Answer: 41.8%

Question: What about the viability, T/C (second compound 10 µM, first compound 10 µM) of the same compound?
Answer: 46.3%

Question: How did the pIC50 (second compound 0.0316 µM) turn out when `CCc1c2c(nc3ccc(O)cc13)-c1cc3c(c(=O)n1C2)COC(=O)[C@]3(O)CC` + Cc1cnc(CNC(=O)c2c(=O)c3ccc(N4CCCN(C)CC4)nc3n3c2sc2ccccc23)cn1 was run?
Answer: 8.36

Question: And the pIC50 (second compound 0.1 µM)?
Answer: 8.35

Question: And the pIC50 (second compound 0.316 µM)?
Answer: 8.41

Question: And the pIC50 (second compound 1 µM)?
Answer: 8.34

Question: And the pIC50 (second compound 3.16 µM)?
Answer: 8.92

Question: What about the pIC50 (second compound 10 µM) of the same compound?
Answer: 8.74

Question: And the viability, T/C (second compound 0.0316 µM, first compound 0.000999 µM)?
Answer: 84.8%

Question: And the viability, T/C (second compound 0.0316 µM, first compound 0.00316 µM)?
Answer: 49.6%

Question: And the viability, T/C (second compound 0.0316 µM, first compound 0.00999 µM)?
Answer: 39.5%

Question: What about the viability, T/C [1] of the same compound?
Answer: 25.7%

Question: What about the viability, T/C (second compound 0.0316 µM, first compound 0.0999 µM) of the same compound?
Answer: 13.8%

Question: What about the viability, T/C [2] of the same compound?
Answer: 7.76%

Question: And the viability, T/C (second compound 0.1 µM, first compound 0.000999 µM)?
Answer: 84.4%

Question: What about the viability, T/C (second compound 0.1 µM, first compound 0.00316 µM) of the same compound?
Answer: 54.1%

Question: What about the viability, T/C (second compound 0.1 µM, first compound 0.00999 µM) of the same compound?
Answer: 38.1%

Question: What about the viability, T/C [3] of the same compound?
Answer: 23.2%

Question: And the viability, T/C (second compound 0.1 µM, first compound 0.0999 µM)?
Answer: 17.4%

Question: And the viability, T/C [4]?
Answer: 10.6%

Question: And the viability, T/C (second compound 0.316 µM, first compound 0.000999 µM)?
Answer: 63.6%

Question: And the viability, T/C (second compound 0.316 µM, first compound 0.00316 µM)?
Answer: 54.1%

Question: What about the viability, T/C (second compound 0.316 µM, first compound 0.00999 µM) of the same compound?
Answer: 37.1%

Question: And the viability, T/C [5]?
Answer: 29%

Question: And the viability, T/C (second compound 0.316 µM, first compound 0.0999 µM)?
Answer: 19.1%

Question: What about the viability, T/C [6] of the same compound?
Answer: 10.3%

Question: And the viability, T/C (second compound 1 µM, first compound 0.000999 µM)?
Answer: 56%

Question: What about the viability, T/C (second compound 1 µM, first compound 0.00316 µM) of the same compound?
Answer: 56.8%

Question: And the viability, T/C (second compound 1 µM, first compound 0.00999 µM)?
Answer: 40.6%

Question: And the viability, T/C [7]?
Answer: 32.1%

Question: What about the viability, T/C (second compound 1 µM, first compound 0.0999 µM) of the same compound?
Answer: 16.7%

Question: And the viability, T/C [8]?
Answer: 7.38%

Question: What about the viability, T/C (second compound 3.16 µM, first compound 0.000999 µM) of the same compound?
Answer: 49.5%

Question: What about the viability, T/C (second compound 3.16 µM, first compound 0.00316 µM) of the same compound?
Answer: 49.4%

Question: And the viability, T/C (second compound 3.16 µM, first compound 0.00999 µM)?
Answer: 40.1%

Question: And the viability, T/C [9]?
Answer: 28.4%

Question: And the viability, T/C (second compound 3.16 µM, first compound 0.0999 µM)?
Answer: 13.8%

Question: And the viability, T/C [10]?
Answer: 4.92%

Question: And the viability, T/C (second compound 10 µM, first compound 0.000999 µM)?
Answer: 57.5%

Question: And the viability, T/C (second compound 10 µM, first compound 0.00316 µM)?
Answer: 40.6%

Question: And the viability, T/C (second compound 10 µM, first compound 0.00999 µM)?
Answer: 33.6%

Question: And the viability, T/C [11]?
Answer: 27.9%

Question: What about the viability, T/C (second compound 10 µM, first compound 0.0999 µM) of the same compound?
Answer: 0.34%

Question: And the viability, T/C [12]?
Answer: 0.24%
